Experiments:
M. tuberculosis 35801 = experiment: MIC against M. tuberculosis strains, agar dilution; format: cell-based, Mycobacterium tuberculosis; settings: S. No. 02 Mt-, Middle Brook 7H10 + OADC, 37° C., 14-21 days
M. tuberculosis H37Rv = experiment: MIC against M. tuberculosis strains, agar dilution; format: cell-based, Mycobacterium tuberculosis; settings: S. No. 04 Mt-, Middle Brook 7H10 + OADC, 37° C., 14-21 days
M. tuberculosis SGPGI [1] = experiment: MIC against M. tuberculosis strains, agar dilution; format: cell-based, Mycobacterium tuberculosis; settings: S. No. 05 Mt-, Middle Brook 7H10 + OADC, 37° C., 14-21 days
M. tuberculosis SGPGI [2] = experiment: MIC against M. tuberculosis strains, agar dilution; format: cell-based, Mycobacterium tuberculosis; settings: S. No. 06 Mt-, Middle Brook 7H10 + OADC, 37° C., 14-21 days
M. tuberculosis M-164 = experiment: MIC against M. tuberculosis strains, agar dilution; format: cell-based, Mycobacterium tuberculosis; settings: S. No. 10 Mt-, Middle Brook 7H10 + OADC, 37° C., 14-21 days
M. tuberculosis 50 = experiment: MIC against M. tuberculosis strains, agar dilution; format: cell-based, Mycobacterium tuberculosis; settings: S. No. 12 Mt-, Middle Brook 7H10 + OADC, 37° C., 14-21 days
M. tuberculosis PC [3] = experiment: MIC against M. tuberculosis strains, agar dilution; format: cell-based, Mycobacterium tuberculosis; settings: S. No. 16 Mt-, Middle Brook 7H10 + OADC, 37° C., 14-21 days
M. tuberculosis PC 4782 = experiment: MIC against M. tuberculosis strains, agar dilution; format: cell-based, Mycobacterium tuberculosis; settings: S. No. 21 Mt-, Middle Brook 7H10 + OADC, 37° C., 14-21 days
M. tuberculosis PC [4] = experiment: MIC against M. tuberculosis strains, agar dilution; format: cell-based, Mycobacterium tuberculosis; settings: S. No. 22 Mt-, Middle Brook 7H10 + OADC, 37° C., 14-21 days
M avium ATCC 25291 = experiment: MIC against MAC strains, agar dilution; format: cell-based, Mycobacterium avium; settings: S. No. 02 Ma-2, M avium ATCC 25291; Middle Brook 7H10 + OADC, 37° C., 14-21 days
M. avium ATCC 1723 = experiment: MIC against MAC strains, agar dilution; format: cell-based, Mycobacterium avium; settings: S. No. 03 Ma-3, M. avium ATCC 1723; Middle Brook 7H10 + OADC, 37° C., 14-21 days
[5] = tested on: M. intracellulare ATCC 13950; experiment: MIC against MAC strains, agar dilution; format: cell-based; settings: S. No. 06 Mi-1, M. intracellulare ATCC 13950; Middle Brook 7H10 + OADC, 37° C., 14-21 days
M. intracellulare F21/12 = experiment: MIC against MAC strains, agar dilution; format: cell-based; settings: S. No. 08 Mi-3, M. intracellulare F21/12; Middle Brook 7H10 + OADC, 37° C., 14-21 days
M. intracellulare B-78/3 = experiment: MIC against MAC strains, agar dilution; format: cell-based; settings: S. No. 09 Mi-4, M. intracellulare B-78/3; Middle Brook 7H10 + OADC, 37° C., 14-21 days
[6] = tested on: M. avium intracellulare 356/97; experiment: MIC against MAC strains, agar dilution; format: cell-based; settings: S. No. 10 Mai-1, M. avium intracellulare 356/97; Middle Brook 7H10 + OADC, 37° C., 14-21 days
[7] = tested on: M. avium intracellulare 540/96; experiment: MIC against MAC strains, agar dilution; format: cell-based; settings: S. No. 12 Mai-4, M. avium intracellulare 540/96; Middle Brook 7H10 + OADC, 37° C., 14-21 days
[8] = tested on: M. avium intracellulare 926/98; experiment: MIC against MAC strains, agar dilution; format: cell-based; settings: S. No. 14 Mai-6, M. avium intracellulare 926/98; Middle Brook 7H10 + OADC, 37° C., 14-21 days
[9] = tested on: M. avium intracellulare 559/97; experiment: MIC against MAC strains, agar dilution; format: cell-based; settings: S. No. 15 Mai-7, M. avium intracellulare 559/97; Middle Brook 7H10 + OADC, 37° C., 14-21 days
[10] = tested on: M. avium intracellulare 18/98; experiment: MIC against MAC strains, agar dilution; format: cell-based; settings: S. No. 16 Mai-9, M. avium intracellulare 18/98; Middle Brook 7H10 + OADC, 37° C., 14-21 days

| SMILES | MIC (M. tuberculosis 35801) | MIC (M. tuberculosis H37Rv) | MIC (M. tuberculosis SGPGI [1]) [µg/mL] | MIC (M. tuberculosis SGPGI [2]) [µg/mL] | MIC (M. tuberculosis M-164) [µg/mL] | MIC (M. tuberculosis 50) [µg/mL] | MIC (M. tuberculosis PC [3]) [µg/mL] | MIC (M. tuberculosis PC 4782) | MIC (M. tuberculosis PC [4]) [µg/mL] | MIC (M avium ATCC 25291) [µg/mL] | MIC (M. avium ATCC 1723) [µg/mL] | MIC [5] [µg/mL] | MIC (M. intracellulare F21/12) [µg/mL] | MIC (M. intracellulare B-78/3) [µg/mL] | MIC [6] [µg/mL] | MIC [7] [µg/mL] | MIC [8] [µg/mL] | MIC [9] [µg/mL] | MIC [10] [µg/mL] |
| --- | --- | --- | --- | --- | --- | --- | --- | --- | --- | --- | --- | --- | --- | --- | --- | --- | --- | --- | --- |
| NNC(=O)c1ccncc1 [INH] | 0.06 µg/mL | 0.125 µg/mL | 1.0 | 16 | >32 | >32 | 8.0 | 0.25 µg/mL | >32 | >32 | 32 | >32 | 32 | 16 | 4.0 | 4.0 | 4.0 | >32 | 8.0 |
| CC[C@H]1OC(=O)[C@H](C)[C@@H](O[C@H]2C[C@@](C)(OC)[C@@H](O)[C@H](C)O2)[C@H](C)[C@@H](O[C@@H]2O[C@H](C)C[C@H](N(C)C)[C@H]2O)[C@](C)(OC)C[C@@H](C)C(=O)[C@H](C)[C@@H](O)[C@]1(C)O [CLA] | >32 µg/mL | 32 µg/mL | 8.0 | 32 | 16 | 16 | 8.0 | 16 µg/mL | 8.0 | 8.0 | 1.0 | 2.0 | 1.0 | 1.0 | 2.0 | >32 | 1.0 | 32 | 32 |
| CCc1cc(C(N)=S)ccn1 [ETH] | 2.0 µg/mL | ≦0.125 μg/ml | 4.0 | >32 | >32 | 32 | 32 | 1.0 µg/mL | >32 | 32 | 16 | 0.5 | 8.0 | 4.0 | 8.0 | 32 | 16 | >32 | 32 |
| C[C@@H]1CN(c2c(F)c(N)c3c(=O)c(C(=O)O)cn(C4CC4)c3c2F)C[C@H](C)N1 [SPAR] | ≦0.125 μg/ml | ≦0.125 μg/ml | 0.25 | 4.0 | 1.0 | 4.0 | 2.0 | ≦0.125 μg/ml | 4.0 | 32 | 4.0 | 16 | 0.125 | 2.0 | 2.0 | 4.0 | 2.0 | 2.0 | 2.0 |
| CO[C@H]1/C=C/O[C@@]2(C)Oc3c(C)c(O)c4c(O)c(c(/C=N/N5CCN(C)CC5)c(O)c4c3C2=O)NC(=O)/C(C)=C\C=C\[C@H](C)[C@H](O)[C@@H](C)[C@@H](O)[C@@H](C)[C@H](OC(C)=O)[C@@H]1C [RIF] | 0.5 µg/mL | 0.25 µg/mL | 16 | >32 | >32 | >32 | 4.0 | 0.06 µg/mL | 2.0 | >32 | 1.0 | 4.0 | 4.0 | 0.25 | 0.5 | >32 | 0.25 | >32 | >32 |
